These results are taken from PubChem BioAssay (NCI).

Several values for one entry are separate records, joined by “and”; a condition that tells them apart may be missing. Identical values can stand only once.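 Values below derive from 48-hour exposures of cells grown in 96-well plates, with endpoints linearly interpolated between the two concentrations bracketing the appropriate inhibition level. GI50: concentration for 50% inhibition of growth. TGI: concentration producing complete growth inhibition.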

Among the test systems are SK-MEL-2 melanoma; ACHN renal; SF-539 CNS; UO-31 renal; MDA-MB-435; COLO 205 colon; SNB-75 CNS; SF-268 CNS; NCI-H226 lung; UACC-62 melanoma.
Common to all, as to experiment: growth of human tumour cells (NCI), 48 h

For the compound `CNC1C(O)C(OC2C(N)CC(N)C(OC3OC(C(C)O)C(O)C(O)C3N)C2O)OCC1(C)O` (configuration not stated), the TGI in the test on SK-MEL-2 melanoma, with ACHN renal, with SF-539 CNS, in the test on UO-31 renal, in the test on MDA-MB-435 and with COLO 205 colon was greater than 100000 nM in each case. Also, the TGI in the test with SNB-75 CNS, in the test on SF-268 CNS, in the test with NCI-H226 lung and in the test with UACC-62 melanoma was greater than 100000 nM throughout.

For the compound `O=C(CCCCCCSc1nc(-c2ccc(Cl)cc2)cc(-c2ccc(Cl)cc2)n1)NO`, the GI50 was 4020 nM with SK-MEL-2 melanoma; 1210 nM in the test on ACHN renal; 1530 nM with SF-539 CNS; 735 nM with UO-31 renal; 1860 nM with MDA-MB-435; 1550 nM with COLO 205 colon. For the same compound, the GI50 was 1320 nM with SNB-75 CNS, 1700 nM with SF-268 CNS, 1710 nM in the test on NCI-H226 lung and 1260 nM in the test with UACC-62 melanoma. Also, the TGI with SK-MEL-2 melanoma came to 18400 nM; with ACHN renal it was 3590 nM; with SF-539 CNS it was 5570 nM; in the test on UO-31 renal it was 2420 nM; in the test with MDA-MB-435 it was 13600 nM; with COLO 205 colon, 8040 nM. Besides, the TGI in the test on SNB-75 CNS is 15600 nM; in the test with SF-268 CNS, 7490 nM; in the test with NCI-H226 lung it was 17500 nM; in the test on UACC-62 melanoma, 4180 nM.

Regarding `CCc1nc(N)nc(N)c1-c1ccc(NCCc2ccccc2)c([N+](=O)[O-])c1`, the TGI in the test with SK-MEL-2 melanoma is 36700 nM; in the test on ACHN renal, 37000 nM; in the test on SF-539 CNS, 18000 nM; in the test with UO-31 renal, greater than 51400 nM; in the test on MDA-MB-435, greater than 73000 nM; in the test with COLO 205 colon, 16900 nM. Moreover, the TGI in the test with SNB-75 CNS is 47300 nM; with SF-268 CNS it was greater than 62500 nM; in the test with NCI-H226 lung, greater than 69700 nM; in the test with UACC-62 melanoma it was 15800 nM.

Turning to `Nc1nc(N)c2nc(CNc3ccc(C(=O)NC(CCCNC(=O)c4ccccc4C(=O)O)C(=O)O)cc3)cnc2n1` (configuration not stated), the GI50 with SK-MEL-2 melanoma is greater than 100000 nM; with ACHN renal, 1.81 nM; in the test on SF-539 CNS, 3.46 nM; with UO-31 renal, 5.32 nM; with COLO 205 colon, 76.5 nM; with NCI-H226 lung, greater than 100000 nM. Besides, in the test with UACC-62 melanoma, the GI50 is < 10 nM and 1.29 nM. Besides, the TGI with SK-MEL-2 melanoma, in the test with ACHN renal, with SF-539 CNS, in the test with UO-31 renal, with MDA-MB-435 and with COLO 205 colon was greater than 100000 nM each time. Besides, the TGI in the test on SNB-75 CNS, in the test on SF-268 CNS, with NCI-H226 lung and with UACC-62 melanoma was greater than 100000 nM in each case.

In the case of `CCOC(=O)Nc1ccc(-c2nc(-c3cccc(OC)c3)c(-c3ccnc(Br)c3)[nH]2)cc1`, the GI50 is 2580 nM with SK-MEL-2 melanoma; 2620 nM with ACHN renal; 1760 nM in the test on SF-539 CNS; 2190 nM with UO-31 renal; 2730 nM in the test on MDA-MB-435; 3230 nM in the test with COLO 205 colon. Further, the GI50 in the test with SNB-75 CNS was 2140 nM; with SF-268 CNS it was 3260 nM; with NCI-H226 lung it was 2210 nM; in the test with UACC-62 melanoma, 1890 nM. Moreover, the TGI in the test with SK-MEL-2 melanoma is 6690 nM; with ACHN renal, greater than 100000 nM; with SF-539 CNS, 4560 nM; with UO-31 renal it was 7750 nM; with MDA-MB-435, 9540 nM; with COLO 205 colon it was greater than 100000 nM. Moreover, the TGI in the test with SNB-75 CNS is greater than 100000 nM; in the test with SF-268 CNS, greater than 100000 nM; in the test with NCI-H226 lung, 7780 nM; in the test on UACC-62 melanoma, 4180 nM.

As for `O=C(OCc1ccc2c(Cl)cc(Cl)c(O)c2n1)c1cc2ccccc2[nH]1`, the GI50 with SK-MEL-2 melanoma was 1470 nM; in the test on ACHN renal it was 219 nM; in the test with SF-539 CNS, 587 nM; in the test with UO-31 renal, 164 nM; in the test on MDA-MB-435 it was 318 nM; with COLO 205 colon, 834 nM. Further, the GI50 in the test on SNB-75 CNS is 583 nM; in the test with SF-268 CNS, 1500 nM; with NCI-H226 lung, 1480 nM; with UACC-62 melanoma, 478 nM. Also, the TGI in the test on SK-MEL-2 melanoma was 3250 nM; in the test with ACHN renal it was 519 nM; in the test with SF-539 CNS, 1480 nM; with UO-31 renal, 331 nM; in the test on MDA-MB-435, 1040 nM; in the test with COLO 205 colon, 2450 nM. The TGI in the test on SNB-75 CNS turned out to be 1970 nM; in the test with SF-268 CNS, 2970 nM; in the test on NCI-H226 lung, 3070 nM; in the test with UACC-62 melanoma, 1700 nM.

On to `CC1=C[S+](c2ccccc2)c2cccc3cc4ccccc4c1c23` (configuration not stated), for which the GI50 with SK-MEL-2 melanoma was 1520 nM; in the test on ACHN renal, 734 nM; with SF-539 CNS, 350 nM; with UO-31 renal it was 312 nM; in the test on MDA-MB-435, 276 nM; in the test with COLO 205 colon, 147 nM. Further, the GI50 in the test with SNB-75 CNS is 452 nM; with SF-268 CNS, 237 nM; in the test on NCI-H226 lung, 1260 nM; with UACC-62 melanoma it was 305 nM. Further, the TGI is 8550 nM with SK-MEL-2 melanoma; 14400 nM in the test with ACHN renal; 1280 nM in the test on SF-539 CNS; 7640 nM with UO-31 renal; 1610 nM in the test with MDA-MB-435; 314 nM with COLO 205 colon. The TGI in the test on SNB-75 CNS came out at 1550 nM; with SF-268 CNS, 1760 nM; with NCI-H226 lung, 7470 nM; in the test on UACC-62 melanoma, 1640 nM.

In the case of `CNCCCNc1nc2ccccc2c2c(=O)c3cc(Cl)ccc3sc12`, the GI50 is 1750 nM with SK-MEL-2 melanoma; 1510 nM in the test with ACHN renal; 1680 nM with SF-539 CNS; 1160 nM in the test on UO-31 renal; 1760 nM in the test with MDA-MB-435; 1880 nM in the test on COLO 205 colon. The GI50 with SNB-75 CNS was 1310 nM; in the test on SF-268 CNS, 1500 nM; in the test on NCI-H226 lung, 4580 nM; in the test with UACC-62 melanoma it was 1620 nM. Further, the TGI with SK-MEL-2 melanoma was found to be 3430 nM; in the test on ACHN renal it was 2890 nM; in the test on SF-539 CNS, 3120 nM; in the test with UO-31 renal, 2420 nM; in the test with MDA-MB-435, 3190 nM; in the test with COLO 205 colon, 3540 nM. Also, the TGI came out at 2610 nM in the test on SNB-75 CNS, 3010 nM with SF-268 CNS, 47100 nM in the test on NCI-H226 lung and 3040 nM with UACC-62 melanoma.

Consider `CCCCCC/C=C\CCCCCCCCCC1=CC(=O)C=C(OC)C1=O`, for which the TGI is 18300 nM in the test on SK-MEL-2 melanoma; 11600 nM with ACHN renal; 6740 nM in the test on SF-539 CNS; 14000 nM in the test on UO-31 renal; 13800 nM in the test with MDA-MB-435; 3240 nM in the test on COLO 205 colon. Moreover, the TGI came to 8070 nM with SNB-75 CNS, 19300 nM with SF-268 CNS, 11100 nM in the test on NCI-H226 lung and 16900 nM in the test on UACC-62 melanoma.
